The values below come from US7659244B2, “Rapamycin peptides conjugates: synthesis and uses thereof” (Quest Pharmatech, Inc., priority 2004, dated 2010).

pIC50: −log10 of the molar value. Where a name gives a salt, the structure may show the parent alone. A value given as a limit tells only on which side of the number the result lay.

Assay [1] has as its system A431. Put plainly: cells. Conditions: Homo sapiens, A-431, 96 h, read-out: Inhibition of H^3 Thymidine uptake (IC50 in nM).
Experimental: (§1) Quantification of cell proliferation and cell viability was determined by measuring the amount of radioactive [^3H-methyl]-thymidine incorporated into DNA.
(§2) Cell culture: For each cell line, culture was carried according to the ATCC Product Information Sheet provided. Cell lines were always freshly thawed prior to each experiment. For all experiments exponentially growing cells were harvested and centrifuged at 1100 rpm, the spent medium was aspirated and cell pellets were resuspended in fresh complete medium. Viable cells were enumerated by trypan blue exclusion using a hemacytometer.
(§3) Cells were then seeded in 96 well tissue culture plates in a total volume of 100 μL/well. A preliminary experiment should be performed to determine the most appropriate cell density for each individual cell line. Cells were allowed to attach and acclimate overnight.
(§4) Addition of test compounds: Each test compound was dissolved in DMSO at a final concentration of 2 mM. Each stock compound was then diluted in complete medium (1:100) to obtain a 20 μM working solution. The working solution was used for further serial dilutions to obtain concentrations of 200 nM, 20 nM, 2 nM, 0.2 nM and 0.02 nM. 100 μL of each dilution was added to the 100 μL cell cultures (3 replicates),. to give final test concentrations of 100 nM, 10 nM, 1 nM, 0.1 nM and 0.01 nM. Using this system of dilutions, the maximum concentration of DMSO to which the cells were exposed was 0.01% v/v. Therefore, 0.01% DMSO was added to control cells to which no test compounds was added. On each plate two positive controls were included: Adriamycin Hydrochloride and Rapamycin. For each positive control 3 concentrations were chosen in a range that achieved an LC50, this range is cell line specific and must be predetermined in a pilot experiment. Plates were incubated for 96 hours prior to harvesting. [^3H-methyl]-thymidine incorporation: After 80 hours incubation, 10 μL (0.5 μCi) of [^3H-methyl]-thymidine diluted in 1× HBSS was added and plates were incubated overnight.
(§5) Growth medium was removed from each well and 100 uL of Trypsin-EDTA was added. The plate was incubated at 37° C. until cells were trypsinized (check under microscope). The detached cells were harvested using a semiautomatic cell harvester. Filters were dried prior to addition to scintillation vials. two mL of scintillation fluid was automatically dispensed into each vial and counting was effected on program 1 (^3H, 1 min, DPM).
(§6) The average and standard error from the DPM counts of replicate samples were calculated.
Assay [2] has as its system Lncap. Put plainly: cells. Conditions: Homo sapiens, 96 h, read-out: Inhibition of H^3 Thymidine uptake (IC50 in nM).
Experimental: as §1, §2, §3, §4, §5, §6
For assay [3], the system named is LS174T. Put plainly: cells. Conditions: Homo sapiens, 96 h, read-out: Inhibition of H^3 Thymidine uptake (IC50 in nM).
Experimental: as §1, §2, §3, §4, §5, §6
Assay [4] deals with MCF-7. Put plainly: cells. Conditions: Homo sapiens, MCF7, 96 h, read-out: Inhibition of H^3 Thymidine uptake (IC50 in nM).
Experimental: as §1, §2, §3, §4, §5, §6
Assay [5] relates to OVCAR-3. The assay is described as follows: cells. Conditions: Homo sapiens, OVCAR-3, 96 h, read-out: Inhibition of H^3 Thymidine uptake (IC50 in nM).
Experimental: as §1, §2, §3, §4, §5, §6
In assay [6] the test system is SKMEL-2. The assay is described as follows: cells. The following applies: Homo sapiens, SK-MEL-2, 96 h, read-out: Inhibition of H^3 Thymidine uptake (IC50 in nM).
Experimental: as §1, §2, §3, §4, §5, §6
The subject of assay [7] is SK-N-SH. Put plainly: cells. The following applies: Homo sapiens, 96 h, read-out: Inhibition of H^3 Thymidine uptake (IC50 in nM).
Experimental: as §1, §2, §3, §4, §5, §6
Assay [8] concerns SKOV-3. Put plainly: cells. The following applies: Homo sapiens, SK-OV-3, 96 h, read-out: Inhibition of H^3 Thymidine uptake (IC50 in nM).
Experimental: as §1, §2, §3, §4, §5, §6
Assay [9] deals with D341. The assay is described as follows: cells. Conditions: Homo sapiens, D341, 96 h, read-out: Inhibition of H^3 Thymidine uptake (IC50 in nM).
Experimental: as §1, §2, §3, §4, §5, §6
For assay [10], the system named is various cell lines. The following applies: in vitro; cited from earlier work.

`CO[C@H]1C[C@@H]2CC[C@@H](C)[C@@](O)(O2)C(=O)C(=O)N2CCCC[C@H]2C(=O)O[C@H]([C@H](C)C[C@@H]2CC[C@@H](O)[C@H](OC)C2)CC(=O)[C@H](C)/C=C(\C)[C@@H](O)[C@@H](OC)C(=O)[C@H](C)C[C@H](C)/C=C/C=C/C=C/1C` [Compound 5, Rapamycin]: the IC50 was determined as 341 nM in assay [1]; 30.3 nM in assay [2]; 980 nM in assay [3]; 0.408 nM in assay [4]; 44.5 nM in [5]; 1.12 nM in [6]. In addition, the IC50 came to 1.33 nM in assay [7], 0.392 nM in assay [8] and 1.56 nM in [9].

As to `COc1cccc2c1C(=O)c1c(O)c3c(c(O)c1C2=O)C[C@@](O)(C(=O)CO)C[C@@H]3O[C@H]1C[C@H](N)[C@H](O)[C@H](C)O1` [Adriamycin, Adriamycin Hydrochloride], the concentration for half-maximal inhibition (IC50) was 50.4 nM in [1]; 2.54 nM in assay [2]; 4.04 nM in assay [3]; 3.11 nM in assay [4]; 4.77 nM in assay [5]; 1.93 nM in assay [6]. Also, the figures for the IC50 in [7], in [8] and in assay [9] were 0.896 nM, 130 nM and 7.02 nM, respectively.

Consider `CO[C@H]1C[C@@H]2CC[C@@H](C)[C@@](O)(O2)C(=O)C(=O)N2CCCC[C@H]2C(=O)O[C@H]([C@H](C)C[C@@H]2CC[C@@H](OC(=O)C(C)(CO)CO)[C@H](OC)C2)CC(=O)[C@H](C)/C=C(\C)[C@@H](O)[C@@H](OC)C(=O)[C@H](C)C[C@H](C)/C=C/C=C/C=C/1C` [CCI-779], for which the pIC50 in assay [10] is over 8.00.
